The results in this text go back to patent publication US20260263638A1, “COMPOSITIONS AND METHODS TO IMPROVE RNA PROPERTIES USING BASE, PHOSPHODIESTER LINKAGE, SUGAR BACKBONE, AND CAP MODIFICATIONS” (The Broad Institute, Inc., priority 2023, published 2026).

Strand notation (5' to 3'): a small letter for the sugar, then the base; units joined by * are phosphorothioate-linked, units joined directly phosphodiester-linked; [ ] holds rarer units or linkages, { } end groups; capitals alone tell only the bases. {m7G-cap} = 7-methylguanosine cap added chemically (m7GDP-imidazolide) to the 5'-phosphate; e = 2'-O-(2-methoxyethyl) (MOE); [I] = hypoxanthine (inosine); d = 2'-deoxy (DNA); m = 2'-O-methyl; r = 2'-OH (RNA); {P} = phosphate; f = 2'-fluoro

Broadly, the Kd is the equilibrium constant for the complex coming apart.

The first data set has as its system HeLa cells. In words: Time-course dual luciferase assay of modified Firefly luciferase mRNA (Renilla control). Format: cell-based. The settings on record: HeLa cells; 8-, 24-, 48-hours post-transfection; benchmark m7G-rG. Here is the method:
The modularity of this workflow enabled divergent construction and evaluation of mRNAs featuring four different types of cap and 5′ UTR modifications (FIG. 8A): (1) base identities within the 5′ UTR, including as locations beyond the third base (+3 position), (2) phosphodiester linkages within the 5′ UTR, (3) sugar backbone modifications within the 5′ UTR, and (4) cap modifications. The effects of all of these different types of modifications on protein translation were assayed using Firefly luciferase reporter at 8-, 24-, and 48-hours post-transfection.
HeLa cells [ATCC, CCL-2] were maintained in DMEM culture media [ThermoFisher Scientific, 119951] containing 10% FBS and 1% penicillin-streptomycin [ThermoFisher Scientific, 15070063] in a 37° C. incubator with 5% CO2 and passaged at a ratio of 1:10 every 3 days. On the day before mRNA transfection, HeLa cells were seeded at 90% confluence in individual wells on 24-well plates. The following day, 50 ng of Renilla luciferase (internal control) mRNA and 50 ng of modified Firefly luciferase mRNA were transfected using Lipofectamine MessengerMAX Transfection Reagent [ThermoFisher Scientific, LMRNA003] per manufacturer's protocols. Additional controls that contain only Renilla luciferase mRNA or lipofection reagent only were included. Three individual transfections were conducted for each condition. 6 hours after transfection, the transfection media was removed, and cells were trypsinized and reseeded to three white clear-bottom 96-well plates [Corning, 3610] in phenol-red-free media. At 8-, 24-, and 48-hours post-transfection, cell culture media was removed and cells were rinsed with DPBS. Cells were lysed and luciferase activity was measured using the Promega Dual Glo Luciferase Assay System [Promega, E2920]. Firefly luminescence/Renilla luminescence for each well was used as mRNA activity readout. In cases where Nluc and Fluc were used, the protocol was conducted similarly using the Nano-Glo Dual-Luciferase Reporter Assay System [Promega, N1610].
Regarding “construct 12: m7G cap; /5Phos//i2MOErA/rGrArGrArArUrArArArArA (SEQ ID NO: 13) ({m7G-cap}-eArGrArGrArArUrArArArArA)”, the “Protein expression (Firefly luciferase luminescence normalized to Renilla, then to m7G-rG), fold increase” value was 4.8 fold. On to “construct 16: m7G cap; /5Phos//i2MOErA//i2MOErG//i2MOErA//i2MOErG//i2MOErA//i2MOErA/rUrArArArArA (SEQ ID NO: 17) ({P}-eAeGeAeGeAeArUrArArArArA; m7G cap on the 5'-phosphate)”, for which the “Protein expression (Firefly luciferase luminescence normalized to Renilla, then to m7G-rG), fold increase” value is reported as 5.4 fold. Same read-out and setting: the value for “construct 21: LNAm7G cap; /5Phos/rArGrArGrArArUrArArArArA (SEQ ID NO: 22) ({P}-rArGrArGrArArUrArArArArA; LNA-modified m7G cap on the 5'-phosphate)” was 4.5 fold. As for “construct 24: LNAm7G cap; /5Phos/mAmGmAmGmAmArUrArArArArA (SEQ ID NO: 25) ({P}-mAmGmAmGmAmArUrArArArArA; LNA-modified m7G cap on the 5'-phosphate)”, the “Protein expression (Firefly luciferase luminescence normalized to Renilla, then to m7G-rG), fold increase” value is reported as 7.5 fold.

Staying with this data set, now noted: HeLa cells; Fluc reporter; result in words.
In the case of “construct 1: m7G cap; /5Phos/rArGrArGrArArUrArArArArA (SEQ ID NO: 2) (AGAGAAUAAAAA; m7G cap, 5' phosphate; modified_base 1 OTHER; 5'-phosphate modified nucleotide)”, the “Effect of cap/5′ UTR modification on protein production / translation” value (“Effect … on protein production / translation” below) is listed as “A>G~C~U”.

For the substance “construct 2: m7G cap; /5Phos/rUrGrArGrArArUrArArArArA (SEQ ID NO: 3) (UGAGAAUAAAAA; m7G cap, 5' phosphate; modified_base 1 OTHER; 5'-phosphate modified nucleotide)”, the “Effect … on protein production / translation” value is recorded as “A>G~C~U”. The same measure, in the same setting: with “construct 3: m7G cap; /5Phos/rCrGrArGrArArUrArArArArA (SEQ ID NO: 4) (CGAGAAUAAAAA; m7G cap, 5' phosphate; modified_base 1 OTHER; 5'-phosphate modified nucleotide)” the entry was “A>G~C~U”; with “construct 4: m7G cap; /5Phos/rIrGrArGrArArUrArArArArA (SEQ ID NO: 5) ({P}-r[I]rGrArGrArArUrArArArArA; m7G cap on the 5'-phosphate)”, “enhanced protein production”; with “construct 5: m7G cap; /5Phos//iN6Me-rA/rGrArGrArArUrArArArArA (SEQ ID NO: 6) (AGAGAAUAAAAA; m7G cap; 5' phosphate; N6-methyl-A; modified_base 1 OTHER; 5'-phosphate modified N6-methyladenosine)”, “enhanced protein production”. “construct 8: m7G cap; /5Phos//i2FA/rGrArGrArArUrArArArArA (SEQ ID NO: 9) ({P}-fArGrArGrArArUrArArArArA; m7G cap on the 5'-phosphate)”: the “Effect … on protein production / translation” value was “hindered translation”. The same measure, in the same setting: the value for “construct 9: m7G cap; /5Phos//ibetaL-rA/rGrArGrArArUrArArArArA (SEQ ID NO: 10) (AGAGAAUAAAAA; m7G cap; 5' phosphate; beta-L-A; modified_base 1 OTHER; 5'-phosphate modified L-adenosine)” was “negligible changes”; that for “construct 10: m7G cap; /5Phos/ArGrArGrArArUrArArArArA (SEQ ID NO: 11) ({m7G-cap}-dArGrArGrArArUrArArArArA)” was “negligible changes”; that for “construct 18: Bn7G cap; /5Phos/rArGrArGrArArUrArArArArA (SEQ ID NO: 19) (AGAGAAUAAAAA; Bn7G cap, 5' phosphate; modified_base 1 OTHER; 5'-phosphate modified nucleotide)” was “did not outperform m7G”. Same read-out and setting: with “construct 19: ClBn7G cap; /5Phos/rArGrArGrArArUrArArArArA (SEQ ID NO: 20) (AGAGAAUAAAAA; ClBn7G cap, 5' phosphate; modified_base 1 OTHER; 5'-phosphate modified nucleotide)” the entry was “did not outperform m7G”; with “construct 20: ClBnOEt7G cap; /5Phos/rArGrArGrArArUrArArArArA (SEQ ID NO: 21) (AGAGAAUAAAAA; ClBnOEt7G cap, 5' phosphate; modified_base 1 OTHER; 5'-phosphate modified nucleotide)”, “did not outperform m7G”.

The data set is the same for the next values; noted with them: topological screening: OU handle position, branching point, branch length, PS.
For the substance “construct 26: m7G-capped azide oligo /5Phos/rArGrArGrArUrArA/3AzideN/ clicked to uncapped rArArA/i5OCTdU/rArArArArArA (SEQ ID NO: 33) (AAATAAAAAA; m7G-capped azide oligo clicked to internal octyne-dU; modified_base 4 OTHER; 5-Octadiynyl modified uracil; misc_feature 1..3 RNA; misc_feature 4 DNA; misc_feature 5..10 RNA)”, the “Translation of branched / dual-capped Fluc mRNA (bioluminometry), result in words” value is given as “effectively induce mRNA translation”.

In a further data set the target is T1, eIF4E (Homo sapiens, UniProt P06730).
T1 construct: His; purchased Cayman Chemical Inc 25150
T1 sequence (P06730 whole entry): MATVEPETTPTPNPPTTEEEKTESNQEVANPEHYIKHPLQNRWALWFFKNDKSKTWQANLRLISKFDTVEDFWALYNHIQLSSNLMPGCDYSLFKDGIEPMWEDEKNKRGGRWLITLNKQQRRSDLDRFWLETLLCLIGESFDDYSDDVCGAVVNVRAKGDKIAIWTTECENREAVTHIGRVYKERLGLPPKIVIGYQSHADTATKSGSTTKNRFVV
As to the kind of experiment: eIF4E electrophoretic mobility shift assay (EMSA). The settings on record: AF647-labeled capped oligos, read-out: eIF4E dissociation constant (Kd). Format: binding. Here is the method:
eIF4E affinity to fluorophore-labeled capped RNA oligonucleotides was quantified through electrophoretic mobility shift assay (EMSA) (FIGS. 14D and 9A-9E).
Capped oligonucleotides were labeled on the 3′ end using AF647 labeled cytidine-5′-phosphate-3′-(6-aminohexyl) phosphate [Jena Bioscience, NU-1706-AF647] and T4 RNA ligase ligated AF647-labeled cytidine onto the capped oligos using manufacturer's protocols. Oligos were then incubated in the binding buffer (1 mM DTT, 50 mM KCl, 10 mM Tris-HCl (pH 7.6), Novex Hi-Density TBE Sample Buffer [Invitrogen, LC6678]) with varying eIF4E-His [Cayman Chemical Inc, 25150] concentrations prepared by sequential dilutions from the stock solution. The oligos and […] were incubated at 4° C. for 30 mins and characterized by EMSA with Novex TBE Gels, 4-20% [Invitrogen, EC6225BOX] at 4° C. AF647 labeled oligos were imaged with BioRad ChemiDoc MP Imaging System [12003154] and band intensities were quantified using ImageJ. For Kd calculation, the proportions of bound were plotted against eIF4E concentration using GraphPad Prism (Specific binding with Hill slope).
For “construct 24: LNAm7G cap; /5Phos/mAmGmAmGmAmArUrArArArArA (SEQ ID NO: 25) ({P}-mAmGmAmGmAmArUrArArArArA; LNA-modified m7G cap on the 5'-phosphate)”, the Kd came to 1570 ± 116 nM. On the same count and under the same terms, with “construct 28: m7G cap; OU handle only; /5Phos/rArGrArUrArArA/i5OCTdU/rArArArArArA (SEQ ID NO: 38) (AGATAAATAAAAAA; m7G cap; internal octyne-dU handle; modified_base 1 OTHER; 5'-phosphate modified nucleotide; modified_base 8 OTHER; 5-Octadiynyl modified uracil; misc_feature 1..7 RNA; misc_feature 8 DNA; misc_feature 9..14 RNA)” the figure was 2210 nM; with “construct 42: dual LNAm7G-capped; /5Phos/rArGrArGrArUrArA/3AzideN/ clicked to /5Phos/rArGrArUrArArA/i5OCTdU/rArArArArArA (SEQ ID NO: 120) (AGATAAATAAAAAA; dual LNA-m7G caps via click branch; modified_base 1 OTHER; 5'-phosphate modified nucleotide; modified_base 8 OTHER; 5-Octadiynyl modified uracil; misc_feature 1..7 RNA; misc_feature 8 DNA; misc_feature 9..14 RNA)”, 1280 nM.
